For data set [1] the following is noted: 298.15 K; 101.33 kPa; Liquid; Vibrating tube method.
Data set [2] is described as follows: refractive index (Na D-line) (dimensionless). To be noted: 298.15 K; 101.33 kPa; Liquid; Standard Abbe refractometry.

Usually mass density stands for mass per unit of volume. The refractive index is the speed of light in vacuum divided by its phase velocity in the sample.

Structures are written as SMILES. ± gives the expanded uncertainty stated by the source.

For the compound `CCCCl` [1-chloropropane], the mass density in data set [1] was 883.81 ± 0.16 kg/m3. The refractive index in data set [2] is recorded as 1.38526 ± 0.00032.

Values taken from the NIST ThermoML archive (doi:10.1016/j.jct.2015.07.039).
